Measured values as given in patent US20250064890A1, “PROTEIN COMPOSITIONS FOR THE TREATMENT OF INFLAMMATORY DISEASES” (Unichem Laboratories Limited, priority 2021, published 2025).

Experiments:
Assay type in all cases: cell-based, human
IL-1β [1] = test: Multiplex analysis, radiotherapy, TR146
Protocol: (§1) Oral buccal mucosal cells (TR146) cells were incubated overnight at 37° C. in 5% CO2 incubator. […] The cells were then stimulated with 5-FU (10 mM) for another 24h for chemotherapy and with gamma radiation (3.5 kGy) using Cobalt 60 for radiotherapy. After 24 h, cell culture supernatants were collected from each well and stored at −20° C. till multiplex analysis. For NF-kB estimations, cell lysates were prepared. Levels of biomarkers were estimated using Magpix® multiplex machine. The cells treated with Amifostine (along with 5-FU or radiation) were considered as positive control (PC). Untreated cells (5-FU or radiation alone treated) were used as negative control (NC).
(§2) The percent modulation in each sample was determined as follows:
(§3) [{Concentration of biomarkers (pg/ml) in Control cells (5-FU or radiation alone treated)−Concentration of biomarkers (pg/ml) in SEQ ID NO: 2+5-FU or radiation treated cells)}/Concentration of biomarkers (pg/ml) in Control cells (5-FU or radiation alone treated)]*100

TNF-α [2] = test: Multiplex analysis, radiotherapy, TR146
Protocol: as §1, §2, §3

MMP-8 = test: Multiplex analysis, radiotherapy, TR146
Protocol: as §1, §2, §3

VEGF [3] = test: Multiplex analysis, radiotherapy, TR146
Protocol: as §1, §2, §3

CCL-2 = test: Multiplex analysis, radiotherapy, TR146
Protocol: as §1, §2, §3

IL-6 [4] = test: Multiplex analysis, radiotherapy, TR146
Protocol: as §1, §2, §3

RAGE = test: Multiplex analysis, radiotherapy, TR146
Protocol: as §1, §2, §3

MMP-3 = test: Multiplex analysis, radiotherapy, TR146
Protocol: as §1, §2, §3

[5] = system: oral (buccal) mucosa cells (TR146); test: Annexin positive cell population against 5-FU damage
[6] = system: oral (buccal) mucosa cells (TR146); test: Restoration of mitochondrial membrane potential (JC-1) against radiation induced damage; settings: for MMP: red/green JC-1 fluorescence ratio
Protocol: (§4) Oral buccal mucosal cells (TR146) were incubated overnight in 5% CO2 incubator at 37° C. for 24 h. […] After 24 h of treatment, cells were exposed to damage (5-FU 5 mM) for 1.25 h for chemotherapy induced inflammation and exposed to gamma radiation (3.5 kGy) using Cobalt 60 for radiation induced inflammation. After the exposure, the anti-apoptotic effect of SEQ ID NO 2 was determined by restoration of mitochondrial membrane depolarization by JC-1 staining and reduction in apoptotic cell populations (Annexin positive and subG0/G1 cells in cell cycle analysis).
After incubation, the supernatants were discarded and 100 μl of JC1-dye solution (prepared by diluting 1 mM DMSO stock into 10 μM in 1×PBS) was added to each well. The cells were then incubated with the dye in CO2 incubator at 37° C. for 15 min, after which the supernatant was removed, and the cells were washed twice with 1×PBS. 100 μl of 1×PBS was finally added to each well. Red fluorescence (excitation 550 nm, emission 600 nm) and green fluorescence (excitation 485 nm, emission 535 nm) were measured using Biotek Synergy HT plate reader. The mitochondrial membrane potential (Δψm) was calculated as the ratio of intensity of red fluorescence to intensity of green fluorescence.
The percentage increase/restoration in mitochondrial membrane potential (MMP) was calculated as: % Increase=[(R−X)/R]*100 • Where, X=Δψm corresponding to TI+5-FU treated cells or TI+radiation treated cells; R=Δψm corresponding to control cells (FU damaged or Radiation damaged alone)

[7] = system: oral (buccal) mucosa cells (TR146); test: Annexin positive cell population against radiation damage; settings: for % Apoptotic cells: Annexin positive
Protocol: as §4
To determine the reduction in apoptotic cell populations using annexin-v staining cells were gently harvested into pre-labeled sterile centrifuge tubes and centrifuged at 300×g for 5-7 min. Supernatant were discarded and the pellet was resuspended in 200 μl of fresh culture medium. 100 μl of cell suspension was transferred into pre-labeled sterile centrifuge tubes. 100 μl of Annexin-V reagent was added to each tube and incubated for 30 min at RT in dark. Cells stained for Annexin-V were then transferred into 96-well plates and acquired on flow cytometer (Guava technologies). Percentage of Annexin-V positive cells was calculated as follows:
={[% Annexin positive cells in 5-FU or radiation alone]−[% Annexin positive cells in (TI+5-FU) or (TI+radiation)]/% Annexin positive cells in 5-FU or radiation alone}*100

IL-1β [8] = test: Multiplex analysis, chemotherapy (5-FU), TR146
Protocol: as §1, §2, §3

TNF-α [9] = test: Multiplex analysis, chemotherapy (5-FU), TR146
Protocol: as §1, §2, §3

VEGF [10] = test: Multiplex analysis, chemotherapy (5-FU), TR146
Protocol: as §1, §2, §3

IL-6 [11] = test: Multiplex analysis, chemotherapy (5-FU), TR146
Protocol: as §1, §2, §3

[12] = 0.1 μg/ml + Radiation (3.5 kGy)

NCCCNCCSP(=O)(O)O [Amifostine, reference compound]
Percentage Inhibition IL-1β (IL-1β [1]; [12]): 10.7% | Percentage Inhibition IL-1β (IL-1β [1]; 10 μg/ml + Radiation (3.5 kGy)): 12.1% | Percentage Inhibition TNF-α (TNF-α [2]; [12]): 49.3% | Percentage Inhibition TNF-α (TNF-α [2]; 10 μg/ml + Radiation (3.5 kGy)): 44.3% | Percentage Inhibition MMP-8 (MMP-8; [12]): 3.6% | Percentage Inhibition MMP-8 (MMP-8; 10 μg/ml + Radiation (3.5 kGy)): 13% | Percentage Inhibition VGEF (VEGF [3]; [12]): 10.3% | Percentage Inhibition VGEF (VEGF [3]; 10 μg/ml + Radiation (3.5 kGy)): 7.2% | Percentage Inhibition CCL-2 (CCL-2; [12]): 23.1% | Percentage Inhibition CCL-2 (CCL-2; 10 μg/ml + Radiation (3.5 kGy)): 0.1% | Percentage Inhibition IL-6 (IL-6 [4]; [12]): 14.2% | Percentage Inhibition IL-6 (IL-6 [4]; 10 μg/ml + Radiation (3.5 kGy)): 1.3% | Percentage Inhibition RAGE (RAGE; [12]): 45.1% | Percentage Inhibition RAGE (RAGE; 10 μg/ml + Radiation (3.5 kGy)): 40.3% | Percentage Inhibition MMP-3 (MMP-3; [12]): 51.9% | Percentage Inhibition MMP-3 (MMP-3; 10 μg/ml + Radiation (3.5 kGy)): 47.4% | % Apoptotic cells (Annexin +ve) ([5]; 1 μg/ml + 5FU (10 mM)): 2.4% | % Decrease in Apoptotic cells (with respect to 5-FU) ([5]; 1 μg/ml + 5FU (10 mM)): 85.7% | % Apoptotic cells (Annexin +ve) ([5]; 10 μg/ml + 5FU (10 mM)): 2.6% | % Decrease in Apoptotic cells (with respect to 5-FU) ([5]; 10 μg/ml + 5FU (10 mM)): 84.5% | % Apoptotic cells (Annexin +ve) ([5]; 50 μg/ml + 5FU (10 mM)): 2.8% | % Decrease in Apoptotic cells (with respect to 5-FU) ([5]; 50 μg/ml + 5FU (10 mM)): 82.9% | % Increase in MMP (with respect to control) [6, 12]: 28.2% | MMP [6, 12]: 5.90 | % Increase in MMP (with respect to control) ([6]; 1 μg/ml + Radiation (3.5 kGy)): 39.7% | MMP ([6]; 1 μg/ml + Radiation (3.5 kGy)): 6.43 | % Increase in MMP (with respect to control) ([6]; 10 μg/ml + Radiation (3.5 kGy)): 35.2% | MMP ([6]; 10 μg/ml + Radiation (3.5 kGy)): 6.23 | % Decrease in Apoptotic cells (with respect to radiation control) [7, 12]: 47.3% | % Apoptotic cells [7, 12]: 7.2% | % Decrease in Apoptotic cells (with respect to radiation control) ([7]; 1 μg/ml + Radiation (3.5 kGy)): 32.6% | % Apoptotic cells ([7]; 1 μg/ml + Radiation (3.5 kGy)): 9.2% | % Decrease in Apoptotic cells (with respect to radiation control) ([7]; 10 μg/ml + Radiation (3.5 kGy)): 63% | % Apoptotic cells ([7]; 10 μg/ml + Radiation (3.5 kGy)): 5.1% | Percentage Inhibition IL-1β (IL-1β [8]; 1 μg/ml + 5-FU (10 mM)): 14.2% | Percentage Inhibition IL-1β (IL-1β [8]; 10 μg/ml + 5-FU (10 mM)): 19.5% | Percentage Inhibition IL-1β (IL-1β [8]; 50 μg/ml + 5-FU (10 mM)): 46.6% | Percentage Inhibition TNF-α (TNF-α [9]; 1 μg/ml + 5-FU (10 mM)): 10% | Percentage Inhibition TNF-α (TNF-α [9]; 10 μg/ml + 5-FU (10 mM)): 13.3% | Percentage Inhibition TNF-α (TNF-α [9]; 50 μg/ml + 5-FU (10 mM)): 10% | Percentage Inhibition VGEF (VEGF [10]; 1 μg/ml + 5-FU (10 mM)): 27.9% | Percentage Inhibition VGEF (VEGF [10]; 10 μg/ml + 5-FU (10 mM)): 35.4% | Percentage Inhibition VGEF (VEGF [10]; 50 μg/ml + 5-FU (10 mM)): 39.6% | Percentage Inhibition IL-6 (IL-6 [11]; 1 μg/ml + 5-FU (10 mM)): 7.2% | Percentage Inhibition IL-6 (IL-6 [11]; 10 μg/ml + 5-FU (10 mM)): 8.9% | Percentage Inhibition IL-6 (IL-6 [11]; 50 μg/ml + 5-FU (10 mM)): 35.2%
